For eight molecules, IC50 results are on record in ChEMBL document CHEMBL1136282, “Design and synthesis of small chemical inhibitors containing different scaffolds for lck SH2 domain” (Bioorg Med Chem Lett, 2003).

SMILES strings stand for the structures. Square brackets hold non-standard residues; d marks the D form. Peptide text beside a SMILES is read from it. pY = N[C@@H](Cc1ccc(OP(=O)(O)O)cc1)C(=O)O Where only a bound is given, the exact number is not on record here.

The target of this test is Tyrosine-protein kinase Lck (Homo sapiens, UniProt P06239). Nature of the test: Inhibition of binding to p56 Lck tyrosine kinase SH2 domain.
Sequence of Tyrosine-protein kinase Lck (P06239 whole entry, the tested form may be a part): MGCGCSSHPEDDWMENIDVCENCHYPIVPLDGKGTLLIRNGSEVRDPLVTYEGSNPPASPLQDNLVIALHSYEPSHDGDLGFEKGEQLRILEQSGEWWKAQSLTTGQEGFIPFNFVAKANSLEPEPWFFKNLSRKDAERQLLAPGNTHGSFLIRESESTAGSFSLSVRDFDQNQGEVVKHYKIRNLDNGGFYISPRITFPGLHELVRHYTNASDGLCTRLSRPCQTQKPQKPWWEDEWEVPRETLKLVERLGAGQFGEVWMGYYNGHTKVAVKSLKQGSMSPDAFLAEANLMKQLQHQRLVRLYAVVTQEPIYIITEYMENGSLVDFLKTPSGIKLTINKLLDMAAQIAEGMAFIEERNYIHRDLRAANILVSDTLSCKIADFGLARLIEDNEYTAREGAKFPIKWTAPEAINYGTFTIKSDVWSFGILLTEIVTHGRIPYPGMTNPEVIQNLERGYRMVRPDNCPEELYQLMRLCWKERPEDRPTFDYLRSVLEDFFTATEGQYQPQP
As to `O=C(/C=C/c1ccc(O)c(O)c1)N[C@H](Cc1ccc(O)c(O)c1)C(=O)O`, the IC50 (usually the midpoint of a concentration-inhibition curve) amounted to 20 µM. Consider `COC(=O)[C@@H](Cc1ccc(O)c(O)c1)NC(=O)/C=C/c1ccc(O)c(O)c1`, for which the IC50 turned out to be 121 µM. Against the preceding molecule, the IC50 is about 6-fold higher. In turn, `COC(=O)[C@@H](Cc1ccc(O)c(O)c1)NC(=O)NCc1ccc(O)c(O)c1` came in with an IC50 of 98 µM.

`COC(=O)[C@@H](Cc1ccc(O)c(O)c1)NC/C=C/c1ccc(O)c(O)c1`: the IC50 was > 500 µM.

The molecule `COC(=O)[C@@H](Cc1ccc(O)c(O)c1)N(C)C(=O)/C=C/c1ccc(O)c(O)c1` showed an IC50 of 149 µM. With `COC(=O)[C@@H](Cc1ccc(O)c(O)c1)/N=C(S)\C=C\c1ccc(O)c(O)c1`, the IC50 stood at 162 µM.

In the case of `CC[C@H](C)[C@H](NC(=O)[C@H](CCC(=O)O)NC(=O)[C@H](CCC(=O)O)NC(=O)[C@H](Cc1ccc(OP(=O)(O)O)cc1)NC(C)=O)C(=O)N[C@@H](CCC(=O)O)C(=O)O` (Ac-[pY]EEIE-OH), the IC50 came out at 1.5 µM. In turn, `O=C(/C=C/c1ccc(O)c(O)c1)O[C@H](Cc1ccc(O)c(O)c1)C(=O)O` [ROSMARINIC ACID] returned an IC50 of 24 µM.
